{"source": "patent US20220213030A1", "about": "“AMINOGUANIDINE HYDRAZONES AS RETROMER STABILIZERS USEFUL FOR TREATING NEUROLOGICAL DISEASES” (OSPEDALE SAN RAFFAELE SRL, priority 2019, published 2022)", "key": {"VPS35": {"target": "VPS35 (Mus musculus, UniProt Q9EQH3+Q9QZ88)", "assay": "VPS35 western blot in spinal cord extracts of G93A mice", "type": "in vivo", "settings": "10 mg/kg, day 100", "experimental": "Lumbar spinal cords were dissected from saline perfused mice and rapidly homogenized in the following lysis buffer: Tris-HCl 10 mM pH 8, EDTA pH 8 1 mM, NaCl 100 mM, NP40 1% and protease inhibitor cocktail (Sigma). Protein extracts were obtained using a tight-fitting glass Potter tissue grinder (1 ml; Wheaton) and then sonicated at a frequency of 20 kHz (10 times-1s). Protein lysates from cells cultures were obtained from plates receiving PBS1× washing and subsequently the lysis buffer followed by sonication. Protein concentrations were measured by BCA protein assay kit (Thermofisher) according to the manufacturer's recommendations. Ten μg of protein extract was loaded on 10% Mini-PROTEAN TGX Stain-Free precast gels for PAGE (Bio-Rad). Gel electrophoresis was performed at 100 V for 2 hours. Gels were transferred on Immobilon®-P PVDF membrane according to the manufacturer's instructions (Millipore). Blots were blocked in 5% BSA in Tris buffered saline plus 0.1% Tween-20 (TBS-T) for 1 hour before receiving primary antibodies: goat α-VPS35 1:800 (ab10099, Abcam); rabbit α-VPS26b 1:1000 (15915-1-AP, ProteinTech); rabbit α-VPS29 1:1000 (ab236796 Abcam); mouse α-βActin 1:25000 (Sigma); mouse α-Golgin97 1:1000 (Invitrogen); mouse α-Ubiquitin 1:500 (Merk) overnight at 4° C. on shaker. […] Quantifications were done using the Image Lab 6.0.1 software (Bio-Rad)."}, "G93A aggregates (SOD1)": {"system": "G93A aggregates (SOD1)", "assay": "Blue-native gel electrophoresis of SOD1 aggregates in G93A mice", "type": "in vivo, mouse", "settings": "10 mg/kg daily, day 83 to day 103", "experimental": "SOD1 mutations increase the propensity of this protein to aggregate in cells (Johnston 2000). We checked whether compound 2a could reduce the accumulation of G93A aggregates in vivo. Starting at post-natal day 83, we injected G93A mice and WT littermates daily with compound 2a (10 mg/kg). We scored motor performances in both vehicle- and compound 2a-treated G93A mice until day 103. […] At day 103, we resolved SC protein extracts by blue-native polyacrylamide gel electrophoresis, and probing these gels with anti-SOD1 antibodies we observed high molecular weight smears in G93A mice that were completely absent in WT litters. The intensity of these high molecular weight entities was lowered in mice treated with lead 2a (FIG. 14B, C). Altogether, retromer stabilization by compound 2a increases lysosomal homeostasis in vitro and in vivo, decreases poly ubiquitination of proteins, and therefore diminishes levels of G93A aggregation.\nG93A mice and their WT litters were injected daily with vehicle or compound 2a (10 mg/kg, from day 83 to day 103). Lumbar spinal cords dissected from saline perfused mice were lysed in Tris-HCl 10 mM pH 8, EDTA 1 mM pH 8, NaCl 100 mM, NP40 1% and protease inhibitor cocktail (Sigma). Extracts were obtained using a tight-fitting glass Potter tissue grinder (1 ml; Wheaton). We incubated 250 μl of each extract with 100 mM Iodoacetamide (Sigma). […]"}}}
{"smiles": "N=C(N)NN=Cc1cccc(C=NNC(=N)N)c1", "note": "[Compound 2a, 1,3-Bis-amino guanidine phenyl hydrazone]", "values": [{"measurement": "VPS35 levels in SC extracts (WB)", "setting": "VPS35", "result": "increase VPS35 and VPS26b levels"}, {"measurement": "intensity of high molecular weight SOD1 entities", "setting": "G93A aggregates (SOD1)", "result": "lowered"}]}
